Assay results from ChEMBL document CHEMBL5137030 (Eur J Med Chem, 2022).
Active and inactive are the calls of the source. The calls are words filed in the database; no cut-off is given here.

Columns and labels:
[1] = tested on: Human alphaherpesvirus 2; assay: Antiviral activity against HSV-2 333vhsB infected in African green monkey Vero cells assessed as inhibition of viral replication by measuring reduction in virus-induced cytopathic effect at 50 uM incubated for 20 hrs by colorimetric analysis; type: functional, organism-based
[2] = tested on: Human alphaherpesvirus 2; assay: (§1) Antiviral activity against HSV-2 infected in African green monkey Vero cells assessed as inhibition of viral replication by measuring log suppression of virus-induced cytopathic effect at 5 uM incubated for 1 hr followed by washing with PBS and subsequent treatment with compound for 24 hrs by plaque assay; type: functional; details: time 25 hrs
[3] = tested on: Human alphaherpesvirus 2; assay: as §1, with “1” for “5”; type: functional; details: time 25 hrs
[4] = tested on: Human alphaherpesvirus 1; assay: as §1, with “HSV-1” for “HSV-2”; type: functional; details: time 25 hrs
[5] = tested on: Human alphaherpesvirus 1; assay: as §1, with “HSV-1” for “HSV-2”, “1” for “5”; type: functional; details: time 25 hrs
[6] = tested on: Human alphaherpesvirus 1; assay: Antiviral activity against HSV-1 infected in African green monkey Vero cells assessed as inhibition of viral replication incubated for 1 hr followed by washing with PBS and subsequent treatment with compound for 24 hrs by plaque reduction assay; type: functional, organism-based; details: Human alphaherpesvirus 1, Vero
[7] = tested on: Human alphaherpesvirus 2; assay: Antiviral activity against HSV-2 infected in African green monkey Vero cells assessed as inhibition of viral replication incubated for 1 hr followed by washing with PBS and subsequent treatment with compound for 24 hrs by plaque reduction assay; type: functional, organism-based; details: Human alphaherpesvirus 2, Vero
[8] = Cytotoxicity against human HepDES19 cells assessed as reduction in cell viability incubated for 72 hrs by MTS assay; type: toxicity, cell-based; details: hepdes19, 72 h
[9] = Half life in mouse liver microsomes at 2 uM in presence of NADPH by LC/MS/MS analysis; type: ADME, Microsome
[10] = Half life in human liver microsomes at 2 uM in presence of NADPH by LC/MS/MS analysis; type: ADME, Microsome
[11] = Apparent permeability of the compound across apical to basolateral side in human Caco-2 cells at 10 uM incubated for 2 hrs; type: ADME, cell-based; details: caco-2, 2 h
[12] = tested on: Human alphaherpesvirus 2; assay: Antiviral activity against wild-type HSV-2 186 infected in African green monkey Vero cells assessed as inhibition of viral replication incubated for 1 hr followed by washing with PBS and subsequent treatment with compound for 24 hrs by plaque reduction assay; type: functional, organism-based; details: Human alphaherpesvirus 2, 186, Vero
[13] = tested on: Human alphaherpesvirus 2; assay: Antiviral activity against thymidine kinase-deficient ACV-resistant HSV-2 186 TKdeltakpn infected in African green monkey Vero cells assessed as inhibition of viral replication incubated for 1 hr followed by washing with PBS and subsequent treatment with compound for 24 hrs by plaque reduction assay; type: functional, organism-based; details: Human alphaherpesvirus 2, 186 TKdeltakpn
[14] = Half-life in BALB/c mouse at 3 mg/kg, po and 1 mg/kg, iv by LC/MS/MS analysis; type: ADME, organism-based; details: in vivo
[15] = Oral bioavailability in BALB/c mouse at 3 mg/kg by LC/MS/MS analysis; type: ADME, organism-based; details: in vivo

Compound | Activity [1] | log(activity) [2] | log(activity) [3] | EC50 [7] | CC50 [8] | other results
O=c1cc(Cc2ccccc2)cc(Cc2ccccc2)n1O | Active | 4.7 | 0.29 | – | – | –
O=c1cc(Cc2ccccc2)ccn1O | Active | 0.03 | 0.4 | – | – | –
Cc1cc(C2CCCCCC2)n(O)c(=O)c1 | Active | 5.09 | 4.15 | 0.16 µM | 18 µM | log(activity) [4]: 5.27; log(activity) [5]: 4.67; EC50 [6]: 0.06 µM; t1/2 [9]: 8 min; t1/2 [10]: < 5 min; Papp [11]: 5.74 10^-6 cm/s
O=c1cc(-c2ccccc2)cc(C2CCCCC2)n1O | Active | 4.08 | 3.73 | 0.29 µM | 20 µM | log(activity) [4]: 5.37; log(activity) [5]: 3.43; EC50 [12]: < 0.3 µM; EC50 [13]: < 0.3 µM; t1/2 [9]: < 5 min; t1/2 [10]: < 5 min; Papp [11]: 4.33 10^-6 cm/s; t1/2 [14]: < 60 min; bioavailability [15]: 10%
O=c1cc(-c2ccccc2)ccn1O | Active | 0.02 | 0.05 | – | – | –
COc1ccc(Cc2cc(C)cc(=O)n2O)cc1 | Active | 4.04 | 1.23 | – | – | –
COc1ccccc1Cc1cc(C)cc(=O)n1O | Active | 3.9 | 1.02 | – | – | –
Cc1cccc(-c2cc(CC3CCCCC3)n(O)c(=O)c2)c1 | Active | 3.95 | 3.26 | 0.31 µM | 16 µM | log(activity) [4]: 4.59; log(activity) [5]: 4.22
O=c1cc(/C=C/c2ccccc2)cc(CC2CCCCC2)n1O | Active | 4.77 | 4.95 | 0.27 µM | 20 µM | log(activity) [4]: 4.42; log(activity) [5]: 4.33
Cc1ccc(-c2cc(CC3CCCCC3)n(O)c(=O)c2)cc1 | Active | 0.34 | 0.02 | – | – | –
O=c1c2ccccc2cc(Cc2ccccc2)n1O | Active | 4.03 | 0.73 | – | – | –
O=c1cccc(C2CCCCC2)n1O | Active | 5.01 | 1.23 | 0.55 µM | 22 µM | –
O=c1ccc(Cc2ccccc2)cn1O | Active | -0.03 | 0.1 | – | – | –
Cc1cc(Cc2ccc3ccccc3c2)n(O)c(=O)c1 | Active | 3.63 | 1.34 | – | – | –
O=c1c2ccccc2cc(-c2ccccc2)n1O | Active | 4.04 | 0.01 | – | – | –
O=c1cccc(Cc2ccccc2)n1O | Active | 2.75 | 0.34 | – | – | –
Cc1cc(Cc2cccc(OCc3ccccc3)c2)n(O)c(=O)c1 | Active | 4.4 | 4.04 | 0.22 µM | 22 µM | t1/2 [9]: < 5 min; t1/2 [10]: < 5 min; Papp [11]: 1.37 10^-6 cm/s
O=c1c2ccccc2cc(CC2CCCCC2)n1O | Active | 4.77 | 2.68 | 0.28 µM | 49 µM | log(activity) [4]: 4.32; log(activity) [5]: 4.16; EC50 [6]: 0.24 µM
O=c1cc(/C=C/c2ccccc2)cc(Cc2ccccc2)n1O | Active | 4.62 | 1.46 | – | – | –
O=c1c2ccccc2cc(C2CCCCC2)n1O | Active | 4.48 | 1.01 | – | – | –
Cc1cc(C2CCC2)n(O)c(=O)c1 | Active | 1.45 | 0.26 | – | – | –
